Assay results: article PMC3998017, “Single cell imaging of Bruton's Tyrosine Kinase using an irreversible inhibitor” (Scientific Reports, 2014)

Biological target: T1, Bruton's tyrosine kinase (BTK) (Homo sapiens, UniProt Q06187)
T1 construct: purified BTK (76 kDa)
Experiment: IC50 on purified BTK enzyme; also covalent labelling of purified BTK and of BTK in Toledo cells by denaturing gel fluorescence, blocked by Ibrutinib
Format: biochemical

T1 sequence (Q06187 2-659): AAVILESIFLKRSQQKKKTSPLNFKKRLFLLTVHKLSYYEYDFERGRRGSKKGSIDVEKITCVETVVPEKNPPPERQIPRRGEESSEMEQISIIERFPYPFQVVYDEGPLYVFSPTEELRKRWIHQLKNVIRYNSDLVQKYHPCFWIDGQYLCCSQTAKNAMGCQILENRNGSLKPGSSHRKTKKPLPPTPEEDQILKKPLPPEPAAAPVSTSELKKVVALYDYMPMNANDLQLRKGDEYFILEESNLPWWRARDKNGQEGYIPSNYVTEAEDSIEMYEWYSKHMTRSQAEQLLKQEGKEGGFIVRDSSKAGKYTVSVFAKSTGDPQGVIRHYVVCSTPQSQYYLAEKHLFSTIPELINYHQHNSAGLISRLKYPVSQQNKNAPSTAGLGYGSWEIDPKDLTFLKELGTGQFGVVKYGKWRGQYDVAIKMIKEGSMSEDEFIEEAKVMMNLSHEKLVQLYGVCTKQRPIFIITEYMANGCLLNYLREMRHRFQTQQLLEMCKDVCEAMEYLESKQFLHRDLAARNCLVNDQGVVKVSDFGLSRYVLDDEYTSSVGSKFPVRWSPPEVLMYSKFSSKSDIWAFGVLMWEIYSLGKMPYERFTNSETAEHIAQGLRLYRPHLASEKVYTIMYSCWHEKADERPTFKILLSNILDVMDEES

- IC50: ~0.2 µM
SMILES: Cc1cc(C)n2c1C=C1C=CC(CCC(=O)NC/C=C/C(=O)N3CCC[C@@H](n4nc(-c5ccc(Oc6ccccc6)cc5)c5c(N)ncnc54)C3)=[N+]1[B-]2(F)F [compound 7, (R,E)-3-(3-((4-(3-(4-amino-3-(4-phenoxyphenyl)-1H-pyrazolo[3,4-d]pyrimidin-1-yl)piperidin-1-yl)-4-oxobut-2-en-1-yl)amino)-3-oxopropyl)-5,5-difluoro-7,9-dimethyl-5H-dipyrrolo[1,2-c:2′,1′-f][1,3,2]diazaborinin-4-ium-5-uide]
